Reference: patent EP2331496B1, “USE OF AN N-ACYL AMINO ACID SELECTED FROM AMONG N-PALMITOYL ALANINE, N-PALMITOYL GLYCINE, AND N-PALMITOYL ISOLEUCINE AS A REGULATING ACTIVE AGENT OF THE GENETIC PROFILE OF SENESCENT REPLICATING FIBROBLASTS OF THE HUMAN SKIN DERMIS” (Societe D'Exploitation De Produits Pour Les Industries …, priority 2008, dated 2010)

What was measured:
[1] = system: gène codant la dermatopontine (DPT); test: Q-PCR gene expression in replicative senescent human dermal fibroblasts: DPT; type: cell-based, humains; settings: aged fibroblasts from adult dermis (16 passages), cultured 96 h with the substance, compared with young cells (8 passages, 100 %)
Description: (§1) Des fibroblastes humains normaux issus de derme adulte et vieillis de manière accélérée (16 passages en culture) ou non (8 passages en culture) ont été cultivés en présence ou non de chacun des quatre N-acyl amino acides suivants : N-palmitoyl glycine, N-palmitoyl alanine, N-palmitoyl isoleucine et N-cocoyl alanine pendant 96 heures. A la fin de l'expérience, les cellules ont été lavées et extraites pour l'analyse génomique. Cette dernière a été réalisée par Q-PCR ("Quantitative Polymerase Chain Reaction").
(§2) Pour chacun des diagrammes de ces figures, les résultats sont exprimés en pourcentage de variation des niveaux relatifs d'expression génique par rapport aux cellules jeunes (100 %), les pourcentages en haut des histogrammes expriment les pourcentages de restauration et les abréviations indiquées sont conformes à la nomenclature officielle Genbank.

[2] = system: sujets caucasiens âgés de 45 ans à 76 ans et présentant des rides de vieillissement cutané; test: In vivo anti-wrinkle efficacy, topical gel-cream on the eye contour (crow's feet); design: species or system humain; settings: 1% gel-cream, topical twice daily on the face, crow's feet zone, 42 days, about 20 volunteers/group; results expressed relative to a commercial reference lipopeptide product
Description: Les N-acyl amino acides testés ont été formulés en gel-crème à 1% dans le couple d'émulsionnants MONTANOV™ 202, MONTANOV™ 82, l'épaississant SEPIPLUS™ 400 ainsi que le MONTANOX™ 60D, afin d'effectuer des applications topiques biquotidiennes sur le visage de sujets caucasiens âgés de 45 ans à 76 ans et présentant des rides de vieillissement cutané (environ 20 volontaires/groupe). Un produit lipopeptidique commercial de référence a également été testé selon le même protocole expérimental.
La région anatomique choisie pour cette étude était la zone du contour de l'oeil (patte d'oie).
La durée du traitement a été de 42 jours.
Les résultats ont été exprimés en termes de surface ridée totale et de nombre de rides par rapport à un produit lipopeptidique commercial de référence.

[3] = system: gène codant le collagène de type I (COL1A1); test: Q-PCR gene expression in replicative senescent human dermal fibroblasts: COL1A1; type: cell-based, humains; settings: aged fibroblasts from adult dermis (16 passages), cultured 96 h with the substance, compared with young cells (8 passages, 100 %)
Description: as §1, §2

[4] = system: gène codant la métallo protéinase MMP-1; test: Q-PCR gene expression in replicative senescent human dermal fibroblasts: MMP-1; type: cell-based, humains; settings: aged fibroblasts from adult dermis (16 passages), cultured 96 h with the substance, compared with young cells (8 passages, 100 %)
Description: as §1, §2

[5] = system: gène codant la cytokine pro-inflammatoire IL-6; test: Q-PCR gene expression in replicative senescent human dermal fibroblasts: IL-6; type: cell-based, humains; settings: aged fibroblasts from adult dermis (16 passages), cultured 96 h with the substance, compared with young cells (8 passages, 100 %)
Description: as §1, §2

[6] = system: gène codant la pleiotrophine (PTN); test: Q-PCR gene expression in replicative senescent human dermal fibroblasts: PTN; type: cell-based, humains; settings: aged fibroblasts from adult dermis (16 passages), cultured 96 h with the substance, compared with young cells (8 passages, 100 %)
Description: as §1, §2

[7] = system: gène codant le nidogène (NID); test: Q-PCR gene expression in replicative senescent human dermal fibroblasts: NID; type: cell-based, humains; settings: aged fibroblasts from adult dermis (16 passages), cultured 96 h with the substance, compared with young cells (8 passages, 100 %)
Description: as §1, §2

[8] = system: gène codant la tenascine C (TNC); test: Q-PCR gene expression in replicative senescent human dermal fibroblasts: TNC; type: cell-based, humains; settings: aged fibroblasts from adult dermis (16 passages), cultured 96 h with the substance, compared with young cells (8 passages, 100 %)
Description: as §1, §2

[9] = system: gène codant la protéine de choc thermique (HSP 90A); test: Q-PCR gene expression in replicative senescent human dermal fibroblasts: HSP 90A; type: cell-based, humains; settings: aged fibroblasts from adult dermis (16 passages), cultured 96 h with the substance, compared with young cells (8 passages, 100 %)
Description: as §1, §2

[10] = system: gène codant la Serpine 1H (HSP47); test: Q-PCR gene expression in replicative senescent human dermal fibroblasts: Serpine 1H (HSP47); type: cell-based, humains; settings: aged fibroblasts from adult dermis (16 passages), cultured 96 h with the substance, compared with young cells (8 passages, 100 %)
Description: as §1, §2

[11] = system: gène codant la vimentine; test: Q-PCR gene expression in replicative senescent human dermal fibroblasts: vimentine; type: cell-based, humains; settings: aged fibroblasts from adult dermis (16 passages), cultured 96 h with the substance, compared with young cells (8 passages, 100 %)
Description: as §1, §2

[12] = system: gène codant la Serpine 2B; test: Q-PCR gene expression in replicative senescent human dermal fibroblasts: Serpine 2B; type: cell-based, humains; settings: aged fibroblasts from adult dermis (16 passages), cultured 96 h with the substance, compared with young cells (8 passages, 100 %)
Description: as §1, §2

[13] = system: gène codant le biglycane (BGN); test: Q-PCR gene expression in replicative senescent human dermal fibroblasts: BGN; type: cell-based, humains; settings: aged fibroblasts from adult dermis (16 passages), cultured 96 h with the substance, compared with young cells (8 passages, 100 %)
Description: as §1, §2

For CCCCCCCCCCCCCCCC(=O)N[C@@H](C)C(=O)O [N-palmitoyl alanine], the “niveau d'expression du gène codant la dermatopontine (DPT)” value [1] was “augmentation du niveau d'expression”, the “diminution de la surface ridée totale” value [2] was 15% and the “niveau d'expression du gène codant le collagène de type I (COL1A1)” value [3] was “augmentation du niveau d'expression”. For the same compound, the “niveau d'expression du gène codant la métallo protéinase MMP-1” value [4] was “diminution du niveau d'expression” and the “niveau d'expression du gène codant la cytokine pro-inflammatoire IL-6” value [5] was “diminution du niveau d'expression”.
In the case of CCCCCCCCCCCCCCCC(=O)NCC(=O)O [N-palmitoyl glycine], the “niveau d'expression du gène codant la pleiotrophine (PTN)” value [6] is reported as “augmentation du niveau d'expression”, the “niveau d'expression du gène codant le nidogène (NID)” value [7] is reported as “augmentation du niveau d'expression” and the “niveau d'expression du gène codant la tenascine C (TNC)” value [8] is reported as “augmentation du niveau d'expression”. The “niveau d'expression du gène codant la dermatopontine (DPT)” value [1] was “augmentation du niveau d'expression”, the “diminution du nombre de rides” value [2] was 35% and the “niveau d'expression du gène codant la métallo protéinase MMP-1” value [4] was “diminution du niveau d'expression”. For the same compound, the “niveau d'expression du gène codant la protéine de choc thermique (HSP 90A)” value [9] was “augmentation du niveau d'expression” and the “niveau d'expression du gène codant la cytokine pro-inflammatoire IL-6” value [5] was “diminution du niveau d'expression”.
With CCCCCCCCCCCCCCCC(=O)N[C@H](C(=O)O)[C@@H](C)CC [N-palmitoyl isoleucine] the “niveau d'expression du gène codant la pleiotrophine (PTN)” value [6] was “augmentation du niveau d'expression”, the “niveau d'expression du gène codant le nidogène (NID)” value [7] was “augmentation du niveau d'expression” and the “niveau d'expression du gène codant la Serpine 1H (HSP47)” value [10] was “augmentation du niveau d'expression”. For the same compound, the “niveau d'expression du gène codant la tenascine C (TNC)” value [8] was “augmentation du niveau d'expression”, the “niveau d'expression du gène codant la dermatopontine (DPT)” value [1] was “augmentation du niveau d'expression” and the “niveau d'expression du gène codant la vimentine” value [11] was “augmentation du niveau d'expression”. For the same compound, the “niveau d'expression du gène codant la Serpine 2B” value [12] was “diminution du niveau d'expression”, the “diminution du nombre de rides” value [2] was 40% and the “niveau d'expression du gène codant le collagène de type I (COL1A1)” value [3] was “augmentation du niveau d'expression”. For the same compound, the “niveau d'expression du gène codant le biglycane (BGN)” value [13] was “augmentation du niveau d'expression”, the “niveau d'expression du gène codant la protéine de choc thermique (HSP 90A)” value [9] was “augmentation du niveau d'expression” and the “niveau d'expression du gène codant la cytokine pro-inflammatoire IL-6” value [5] was “diminution du niveau d'expression”.
